Test results from patent US12077502B2, “Formulations of T-type calcium channel modulators and methods of use thereof” (PRAXIS PRECISION MEDICINES, INC., priority 2019, dated 2024).

Experiment: Safety and tolerability in the essential tremor clinical study
Format: in vivo, human
Conditions: 20 mg then 40 mg once a day, 14 days (formulation 5), emerging data

Structure (SMILES): CC(C)(C)NC(=O)CN1CCC(CNC(=O)c2cc(F)cc(Cl)c2)CC1 [compound of formula (I)]
- tolerability: well tolerated
